# Results: ChEMBL document CHEMBL1143043, “Monitoring aminoglycoside-induced conformational changes in 16S rRNA through acrylamide quenching” (Bioorg Med Chem, 2007)
# How the values were obtained:
# [1] = Affinity to hairpin A-site 16S rRNA by Electrospray ionization mass spectrometry
# [2] = Affinity to 2-aminopurine labeled hairpin A-site 16S rRNA by Electrospray ionization mass spectrometry
smiles,measurement,setting,value
NC[C@@H]1O[C@H](O[C@H]2[C@@H](O)[C@H](O[C@@H]3[C@@H](O)[C@H](N)C[C@H](N)[C@H]3O[C@H]3O[C@H](CO)[C@@H](O)[C@H](O)[C@H]3N)O[C@@H]2CO)[C@H](N)[C@@H](O)[C@@H]1O [PAROMOMYCIN],Kd,[1],0.37 µM
same,Kd,[2],0.98 µM
